Test results as given in patent US20220304862A1, “Method And Device For Substance Delivery To The Inner Ear” (UNIVERSITY OF BRIGHTON, priority 2019, published 2022).

Tested on: auditory nerve
Experimental: Pigmented guinea pigs of similar weight (350-360 g) were anaesthetised with the neurolept anaesthetic technique (0.06 mg/kg body weight atropine sulphate s.c., 30 mg/kg pentobarbitone i.p., 500 μl/kg Hypnorm i.m.). Additional injections of Hypnorm were given every 40 minutes. Additional doses of pentobarbitone were administered as needed to maintain a non-reflexive state. The heart rate was monitored with a pair of skin electrodes placed on both sides of the thorax. The animals were tracheotomized and artificially respired, and their core temperature was maintained at 38° C. with a heating blanket and a heated head holder.
The middle ear cavity of the ear used for the measurements was opened to reveal the round window. Compound action potentials of the auditory nerve were measured from the cochlear bony ridge in the proximity of the round window membrane using Teflon-coated silver wire coupled to laboratory designed and built extracellular amplifier (James Hartley). Thresholds of the N1 peak of the compound action potentials were estimated visually using 10 ms tone stimuli at a repetition rate of 10 Hz.
For acoustic stimulation sound was delivered to the tympanic membrane by a closed acoustic system comprising two Bruel and Kjaer 4134½″ microphones for delivering tones and a single Bruel and Kjaer 4133½″ microphone for monitoring sound pressure at the tympanum. The microphones were coupled to the ear canal via 1 cm long, 4 mm diameter tubes to a conical speculum, the 1 mm diameter opening of which was placed about 1 mm from the tympanum. The closed sound system was calibrated in situ for frequencies between 1 and 50 kHz. Known sound pressure levels were expressed in dB SPL re 2×10^−5 Pa. All acoustic stimuli in this work were shaped with raised cosines of 0.5 ms duration at the beginning and at the end of stimulation. White noise for acoustical calibration and tone sequences for auditory stimulation were synthesised by a Data Translation 3010 board at 250 kHz sampling rate and delivered to the microphones through low-pass filters (100 kHz cut-off frequency). Signals from the acoustic measuring amplifier (James Hartley) were digitised at 250 kHz sampling rate using the same board and averaged in the time domain. Experimental control, data acquisition and data analysis were performed using a PC with programmes written in MATLAB.
The solution was removed from the round window using paper wicks to observe the wash out effect. […]
In the second experiments, the placement of the same volume of salicylate solution on the round window was followed by stimulation of the ear with oscillating air pressure in the ear canal during a 5-minute period with a consecutive 5-minute period without oscillating air pressure stimulation when the auditory nerve thresholds were measured. […]

O=C([O-])c1ccccc1O.[Na+] [salicylate, sodium salicylate]
time after which the salicylate effect saturated (oscillating pressure 4 Hz in ear canal, total pressure stimulation time, excluding the 5-minute no-pressure periods): 15 to 20 min | effect of salicylate on the auditory nerve threshold (passive diffusion, 5 μl of 100 mM on round window, tone frequencies lower than 5 kHz (approximately apical 55% of cochlear length), FIG. 2A): no effect | increase of threshold response to pure tones with oscillating pressure versus passive diffusion (tones 27, 21, 15, 11, 5, 3 and 1 kHz, particularly low frequencies, pooled data of 5 experiments per protocol, FIG. 4): to a far greater extent | recovery of compound action potential thresholds after washing out of salicylate from the round window (washout after 80 min (passive) or 74 min (oscillating pressure), FIG. 2): Partial recovery
